{
  "source": "paper PMC4703546",
  "about": "(Bioorganic & medicinal chemistry, 2015)",
  "key": {"[1]": {"tested_on": "all c-Met-dependant cell lines", "assay": "MTT proliferation assay, panel summary", "type": "cell-based", "conditions": "Homo sapiens, read-out: IC50 range, antiproliferative activity"}, "MDA-MB-231/GFP": {"tested_on": "MDA-MB-231/GFP", "assay": "Orthotopic athymic nude mouse xenograft model", "type": "in vivo, athymic nude mice", "conditions": "10 mg/kg i.p. 3 times per week"}, "[2]": {"tested_on": "c-Met in MDA-MB-231 cells", "assay": "Western blot analysis of c-Met and p-c-Met levels", "type": "cell-based, human", "conditions": "MDA-MB-231, 15 and 30 μM, 48 h"}, "HL-60 cells": {"tested_on": "HL-60 cells", "conditions": "HL-60, 5 and 10 μM; cited from earlier work"}, "[3]": {"tested_on": "non-tumorigenic human mammary epithelial cells MCF-10A"}},
  "data": [
    {"smiles": "O=C1N[C@@H](Cc2c[nH]c3ccccc23)C(=O)N/C1=C/c1cnc[nH]1", "note": "[DHTD (3), dehydrohistidyltryptophenyl-diketopiperazine]", "values": [
      {"measurement": "IC50", "setting": "[1]", "result": "20 to 40", "unit": "µM"}
    ]},
    {"smiles": "C=CC(C)(C)[C@@]12C=C(O)C(=O)N3/C(=C/c4cnc[nH]4)C(=O)N[C@]31N(OC)c1ccccc12", "note": "[Meleagrin (1), meleagrin]", "values": [
      {"measurement": "effect on body weight gains and gross phenotype", "setting": "MDA-MB-231/GFP; listed as meleagrin", "result": "not adversely affecting"},
      {"measurement": "effect on body weight gains and gross phenotype", "setting": "MDA-MB-231/GFP; listed as meleagrin (1)", "result": "no significant changes"},
      {"measurement": "effect on phosphorylated (activated) c-Met level", "setting": "[2]", "result": "significant reduction"},
      {"measurement": "effect on total c-Met level", "setting": "[2]", "result": "no effect"},
      {"measurement": "IC50", "setting": "[1]", "result": "1.8 to 8.9", "unit": "µM"},
      {"measurement": "cytotoxic mechanism by flow cytometric analysis", "setting": "HL-60 cells", "result": "arrested the cell cycle through G2/M phase"},
      {"measurement": "toxicity towards MCF-10A cells", "setting": "[3]", "result": "minimal"}
    ]},
    {"smiles": "C=CC(C)(C)[C@@]12C=C(O)C(=O)N3/C(=C/c4cn([C@H]5C[C@@]6(O)O[C@@H]7C[C@@]6(C)[C@]6(C[C@]8(C)CCC(C)(C)[C@@H]8[C@@H]76)[C@@H]5C)cn4)C(=O)N[C@]31N(OC)c1ccccc12", "note": "[Meleagrin B]", "values": [
      {"measurement": "cytotoxic mechanism by flow cytometric analysis", "setting": "HL-60 cells", "result": "induced HL-60 cells apoptosis"}
    ]},
    {"smiles": "C=CC(C)(C)[C@@]12C[C@H]3C(=O)N/C(=C/c4c[nH]cn4)C(=O)N3[C@@H]1Nc1ccccc12", "note": "[Roquefortine C (2), roquefortine C]", "values": [
      {"measurement": "IC50", "setting": "[1]", "result": "20 to 40", "unit": "µM"}
    ]}
  ]
}
